Legend:
Format in all cases: cell-based, HCV
[1] = test system: genotype 1a transient replicon (1a-H77); assay: 1a transient replicon (luciferase reporter); settings: Hepatitis C virus, HuH-7 cells, 5% FBS
[2] = test system: genotype 1a replicon (1a-H77); assay: 1a stable replicon (luciferase reporter); settings: Hepatitis C virus, Huh-7, luciferase reporter, HuH-7 cells, 5% FBS
[3] = test system: genotype 1b transient replicon; assay: 1b transient replicon (luciferase reporter); settings: Hepatitis C virus, HuH-7 cells, 5% FBS
[4] = test system: genotype 1b replicon (1b-Con1, 1b-N); assay: 1b stable replicon (luciferase reporter); settings: Hepatitis C virus, HuH-7 cells, 5% FBS
[5] = test system: genotype 3a NS3 gene in transient replicon; assay: 3a transient replicon (luciferase reporter); settings: Hepatitis C virus, Huh-7, read-out: 3a transient replicon (nM)

| SMILES | EC50 [1] | EC50 [2] | EC50 [3] | EC50 [4] | EC50 [5] |
| --- | --- | --- | --- | --- | --- |
| Cc1cc(C(=O)N[C@H]2CCCCC/C=C\[C@@H]3C[C@@]3(C(=O)NS(=O)(=O)C3CC3)NC(=O)[C@@H]3C[C@@H](Oc4nc5cccc(F)c5c5ccccc45)CN3C2=O)no1 | < 0.1 nM | 0.5 to 1 nM | 0.1 to 0.5 nM | 0.1 to 0.5 nM | > 1 nM |
| Cc1cc(C(=O)N[C@H]2CCCCC/C=C\[C@@H]3C[C@@]3(C(=O)NS(=O)(=O)C3CC3)NC(=O)[C@@H]3C[C@@H](Oc4nc5ccccc5c5ccc(F)cc45)CN3C2=O)no1 | < 0.1 nM | 0.1 to 0.5 nM | 0.1 to 0.5 nM | 0.1 to 0.5 nM | > 1 nM |
| Cc1cc(C(=O)N[C@H]2CCCCC/C=C\[C@@H]3C[C@@]3(C(=O)NS(=O)(=O)C3CC3)NC(=O)[C@@H]3C[C@@H](Oc4nc5cc(F)c(F)cc5c5ccc(OC(F)(F)F)cc45)CN3C2=O)no1 | < 0.1 nM | 0.5 to 1 nM | < 0.1 nM | 0.5 to 1 nM | > 1 nM |
| CC1(S(=O)(=O)NC(=O)[C@@]23C[C@H]2/C=C\CCCCC[C@H](NC(=O)[C@H](O)C(F)(F)F)C(=O)N2C[C@H](Oc4nc5cc(F)ccc5c5ccccc45)C[C@H]2C(=O)N3)CC1 | < 0.1 nM | 0.1 to 0.5 nM | < 0.1 nM | 0.1 to 0.5 nM | > 1 nM |
| Cc1cc(C(=O)N[C@H]2CCCCC/C=C\[C@@H]3C[C@@]3(C(=O)NS(=O)(=O)C3(C)CC3)NC(=O)[C@@H]3C[C@@H](Oc4nc5ccccc5c5ccc(F)cc45)CN3C2=O)no1 | < 0.1 nM | 0.5 to 1 nM | 0.1 to 0.5 nM | 0.5 to 1 nM | > 1 nM |
| Cn1ccc(C(=O)N[C@H]2CCCCC/C=C\[C@@H]3C[C@@]3(C(=O)NS(=O)(=O)C3(C)CC3)NC(=O)[C@@H]3C[C@@H](Oc4nc5cc(F)ccc5c5ccccc45)CN3C2=O)n1 | 0.1 to 0.5 nM | 0.5 to 1 nM | 0.1 to 0.5 nM | 0.1 to 0.5 nM | 0.1 to 0.5 nM |
| Cc1cc(C(=O)N[C@H]2CCCCC/C=C\[C@@H]3C[C@@]3(C(=O)NS(=O)(=O)C3(C)CC3)NC(=O)[C@@H]3C[C@@H](Oc4nc5ccccc5c5cc(F)ccc45)CN3C2=O)no1 | – | 0.5 to 1 nM | – | 0.1 to 0.5 nM | > 1 nM |
| COc1ccc2c(c1)c(O[C@@H]1C[C@H]3C(=O)N[C@]4(C(=O)NS(=O)(=O)C5CC5)C[C@H]4/C=C\CCCCC[C@H](NC(=O)c4cc(C)on4)C(=O)N3C1)nc1ccccc12 | < 0.1 nM | 0.1 to 0.5 nM | 0.1 to 0.5 nM | 0.5 to 1 nM | > 1 nM |
| Cn1ccc(C(=O)N[C@H]2CCCCC/C=C\[C@@H]3C[C@@]3(C(=O)NS(=O)(=O)C3(C)CC3)NC(=O)[C@@H]3C[C@@H](Oc4nc5ccccc5c5ccc(F)cc45)CN3C2=O)n1 | 0.1 to 0.5 nM | 0.1 to 0.5 nM | 0.1 to 0.5 nM | < 0.1 nM | 0.5 to 1 nM |
| COc1ccc2c(c1)c(O[C@@H]1C[C@H]3C(=O)N[C@]4(C(=O)NS(=O)(=O)C5CC5)C[C@H]4/C=C\CCCCC[C@H](NC(=O)c4cc(C)on4)C(=O)N3C1)nc1cc(F)ccc12 | – | 0.5 to 1 nM | – | 0.5 to 1 nM | > 1 nM |
| Cc1cc(C(=O)N[C@H]2CCCCC/C=C\[C@@H]3C[C@@]3(C(=O)NS(=O)(=O)C3CC3)NC(=O)[C@@H]3C[C@@H](Oc4nc5cc(F)ccc5c5ccccc45)CN3C2=O)no1 | – | 0.1 to 0.5 nM | – | 0.1 to 0.5 nM | > 1 nM |
| Cn1ccc(C(=O)N[C@H]2CCCCC/C=C\[C@@H]3C[C@@]3(C(=O)NS(=O)(=O)C3(C)CC3)NC(=O)[C@@H]3C[C@@H](Oc4nc5cc(F)ccc5c5cc(F)ccc45)CN3C2=O)n1 | 0.1 to 0.5 nM | 0.1 to 0.5 nM | 0.1 to 0.5 nM | < 0.1 nM | – |
| Cn1ccc(C(=O)N[C@H]2CCCCC/C=C\[C@@H]3C[C@@]3(C(=O)NS(=O)(=O)C3CC3)NC(=O)[C@@H]3C[C@@H](Oc4nc5cc(F)ccc5c5ccccc45)CN3C2=O)n1 | 0.1 to 0.5 nM | 0.1 to 0.5 nM | 0.1 to 0.5 nM | < 0.1 nM | – |
| CC1(S(=O)(=O)NC(=O)[C@@]23C[C@H]2/C=C\CCCCC[C@H](NC(=O)c2ccn(C(F)F)n2)C(=O)N2C[C@H](Oc4nc5cc(F)ccc5c5ccccc45)C[C@H]2C(=O)N3)CC1 | 0.1 to 0.5 nM | 0.5 to 1 nM | 0.1 to 0.5 nM | 0.1 to 0.5 nM | – |
| Cn1ccc(C(=O)N[C@H]2CCCCC/C=C\[C@@H]3C[C@@]3(C(=O)NS(=O)(=O)C3CC3)NC(=O)[C@@H]3C[C@@H](Oc4nc5cc(F)ccc5c5cc(F)ccc45)CN3C2=O)n1 | 0.1 to 0.5 nM | 0.5 to 1 nM | 0.1 to 0.5 nM | < 0.1 nM | – |
| Cn1ccc(C(=O)N[C@H]2CCCCC/C=C\[C@@H]3C[C@@]3(C(=O)NS(=O)(=O)C3CC3)NC(=O)[C@@H]3C[C@@H](Oc4nc5cccc(F)c5c5ccccc45)CN3C2=O)n1 | 0.5 to 1 nM | 0.5 to 1 nM | 0.1 to 0.5 nM | < 0.1 nM | – |
| Cn1ccc(C(=O)N[C@H]2CCCCC/C=C\[C@@H]3C[C@@]3(C(=O)NS(=O)(=O)C3CC3)NC(=O)[C@@H]3C[C@@H](Oc4nc5ccccc5c5cccc(F)c45)CN3C2=O)n1 | 0.1 to 0.5 nM | 0.5 to 1 nM | 0.5 to 1 nM | < 0.1 nM | – |
| COc1ccc2c(c1)nc(O[C@@H]1C[C@H]3C(=O)N[C@]4(C(=O)NS(=O)(=O)C5CC5)C[C@H]4/C=C\CCCCC[C@H](NC(=O)c4cc(C)on4)C(=O)N3C1)c1ccc(F)cc12 | – | 0.1 to 0.5 nM | – | 0.1 to 0.5 nM | > 1 nM |
| Cc1cc(C(=O)N[C@H]2CCCCC/C=C\[C@@H]3C[C@@]3(C(=O)NS(=O)(=O)C3CC3)NC(=O)[C@@H]3C[C@@H](Oc4nc5cc(F)ccc5c5cc(OC(F)(F)F)ccc45)CN3C2=O)no1 | < 0.1 nM | – | 0.1 to 0.5 nM | – | > 1 nM |
| Cc1cc(C(=O)N[C@H]2CCCCC/C=C\[C@@H]3C[C@@]3(C(=O)NS(=O)(=O)C3CC3)NC(=O)[C@@H]3C[C@@H](Oc4nc5ccccc5c5cc(OC(F)(F)F)ccc45)CN3C2=O)no1 | < 0.1 nM | – | 0.1 to 0.5 nM | – | > 1 nM |
| Cn1ccc(C(=O)N[C@H]2CCCCC/C=C\[C@@H]3C[C@@]3(C(=O)NS(=O)(=O)C3CC3)NC(=O)[C@@H]3C[C@@H](Oc4nc5ccccc5c5cc(OC(F)(F)F)ccc45)CN3C2=O)n1 | 0.1 to 0.5 nM | – | 0.1 to 0.5 nM | – | > 1 nM |
| Cn1ccc(C(=O)N[C@H]2CCCCC/C=C\[C@@H]3C[C@@]3(C(=O)NS(=O)(=O)C3(C)CC3)NC(=O)[C@@H]3C[C@@H](Oc4nc5ccccc5c5cccc(F)c45)CN3C2=O)n1 | 0.1 to 0.5 nM | < 0.1 nM | 0.1 to 0.5 nM | 0.1 to 0.5 nM | – |
| Cn1ccc(C(=O)N[C@H]2CCCCC/C=C\[C@@H]3C[C@@]3(C(=O)NS(=O)(=O)C3CC3)NC(=O)[C@@H]3C[C@@H](Oc4nc5cc(OC(F)(F)F)ccc5c5ccccc45)CN3C2=O)n1 | < 0.1 nM | < 0.1 nM | 0.1 to 0.5 nM | < 0.1 nM | – |
| Cn1ccc(C(=O)N[C@H]2CCCCC/C=C\[C@@H]3C[C@@]3(C(=O)NS(=O)(=O)C3(C)CC3)NC(=O)[C@@H]3C[C@@H](Oc4nc5cc(OC(F)(F)F)ccc5c5ccc(F)cc45)CN3C2=O)n1 | < 0.1 nM | – | < 0.1 nM | – | 0.1 to 0.5 nM |
| CC1(S(=O)(=O)NC(=O)[C@@]23C[C@H]2/C=C\CCCCC[C@H](NC(=O)[C@H](O)C(F)(F)F)C(=O)N2C[C@H](Oc4nc5ccccc5c5cc(F)ccc45)C[C@H]2C(=O)N3)CC1 | < 0.1 nM | – | < 0.1 nM | – | > 1 nM |

— patent US8951964B2, “Phenanthridine macrocyclic hepatitis C serine protease inhibitors” (priority 2010, dated 2015)
